Data: US6166008A, “Treatment of schizophrenia with ampakines and neuroleptics” (Cortex Pharmaceuticals, Inc., priority 1998, dated 2000)
“Also recorded” adds a separate entry of the source. Structures can show the parent of a compound that is named as a salt.

Tests used:
psychotic symptoms = details: cited from earlier work; for effect on symptoms in patients: Lahti et al.; for effect in volunteers: Krystal et al.
behavior in animals = details: Freed et al.; cited from earlier work
[1] = test system: AMPA-type glutamate receptors; assay: Specificity for AMPA-type glutamate receptors
Source text: (§1) Table 2 presents the results of radioligand binding studies that show a lack of interaction between Ampakines and dopaminergic or serotonergic receptors.

Adrenergic receptor = assay: Radioligand binding, [^3 H]-Prazosin
Source text: as §1
(§2) Radioligand Binding Analysis of Potential Interactions between
(§3) Select Ampakines and Select Neurotransmitter Receptors

[2] = test system: methamphetamine-induced locomotor activity; assay: Methamphetamine-induced locomotor activity / crossing (photobeam system); details: for Percent Reduction in Methamphetamine Induced Activity: Crossing: Table 1; for reduction of METH LMA: text of Example 3, locomotor activity, haloperidol 0.06 mg/kg, combination p<0.005 vs METH+HAL
Source text: (§4) In the present experiments, male Sprague-Dawley rats (250-300 g; Charles River Laboratories) were given ad libitum food and water and maintained on a 12:12 hr light:dark cycle with lights on at 6:00 AM. […] Locomotor and rearing activities were continuously monitored by computer for all ten test cages. Test cages (with photobeam arrays) were placed in a partially darkened room with room ventilation as background noise. On the test day, naive rats were initially placed in the test cages and baseline behavioral activity in the novel environment was monitored during a 30-minute acclimation period. The rats were then injected (i.p.) with vehicle or drug(s) dissolved in vehicle and immediately returned to the test cage and monitored undisturbed for 90 minutes.
(§5) Behavioral experiments were repeated at least twice for each condition. Photobeam breaks were summed by the computer into ten-minute periods for analysis. Group means and standard errors are reported in the figures; means and standard deviations were used for statistical analysis by unpaired, two-tailed t test assuming unequal variance.

Dopaminergic receptor = assay: Radioligand binding, [^3 H]-Spiperone
Source text: as §1, §2, §3

Muscarinic receptor = assay: Radioligand binding, [^3 H]-QNB
Source text: as §1, §2, §3

AMPA receptors = assay: Field EPSP amplitude in rat hippocampal slices; type: cell-based; details: field CA1, read-out: EC50 values to increase the amplitude of the field EPSP
Experimental: The physiological effects of Ampakines may be tested in vitro with slices of rat hippocampus according to the following procedure. Excitatory responses (field EPSPs) are measured in hippocampal slices, which are maintained in a recording chamber continuously perfused with artificial cerebrospinal fluid (ACSF). During a 15-30 minute interval, the perfusion medium is switched to one containing various concentrations of the test compounds. Responses collected immediately before and at the end of drug perfusion were superimposed in order to calculate both the percent increase in EPSP amplitude and percent increase in the width of the response at one-half the peak height (half-width). […]
Current pulses (0.1 msec) through the stimulating electrode activate a population of the Schaffer-commissural (SC) fibers which arise from neurons in the field CA3 and terminate in synapses on the dendrites of CA1 neurons. […] This current results in a voltage in the extracellular space (the field excitatory post-synaptic potential or field "EPSP") which is recorded by a high impedance recording electrode positioned in the middle of the stratum radiatum of CA1. […]

Serotoninergic receptor = assay: Radioligand binding, [^3 H]-dLSD
Source text: as §1, §2, §3

[3] = test system: methamphetamine-induced rearing activity; assay: Methamphetamine-induced stereotypic rearing activity (photobeam system); details: for total cumulative rearing activity during the 90 minute period after drug administration: FIG. 2, METH 2 mg/kg in all, combination p<0.0005 vs METH+clozapine, saline 56±9; for total cumulative rearing activity during the 90 minute period after drug administration / total rearing activity during the 90 minute test period: i.p., mean±standard error; for reduction of methamphetamine-induced rearing activity: FIG. 3 legend; for total rearing activity during the 90 minute test period: FIG. 4, METH in all, combination p<0.0005 vs METH+HAL, saline 53±11; for Percent Reduction in Methamphetamine Induced Activity: Rearing: Table 1; for reduction of METH-induced rearing: risperidone 0.1 mg/kg, combination p<0.01 vs METH+RISP
Source text: as §4, §5

[4] = peripheral administration in humans; Guenzi and Zanetti; cited from earlier work
serotonin receptors = details: atypical antipsychotics; cited from earlier work
dopamine receptors = details: atypical antipsychotics; cited from earlier work
D2 dopamine receptor = details: typical antipsychotics; cited from earlier work
[5] = test system: fast synaptic potentials in hippocampus; details: metabolite of aniracetam; cited from earlier work
[6] = clozapine 1 mg/kg experiment, CX516 10 mg/kg
[7] = fluphenazine 0.2 mg/kg experiment, CX516 10 mg/kg
[8] = haloperidol 0.06 mg/kg experiment, CX516 30 mg/kg
[9] = risperidone 0.1 mg/kg experiment, CX516 10 mg/kg
[10] = clozapine 1.0 mg/kg, CX516 10 mg/kg
[11] = clozapine experiment, METH 2 mg/kg i.p., clozapine 1.0 mg/kg, CX516 10 mg/kg
[12] = haloperidol experiment, HAL 0.06 mg/kg, CX516 30 mg/kg
[13] = text of Example 2, CX516 10 mg/kg

c1ccc(C2(N3CCCCC3)CCCCC2)cc1 [phencyclidine]
effect on symptoms in patients (psychotic symptoms): exacerbate symptoms in patients | effect in volunteers (psychotic symptoms): produce a range of psychotic symptoms in volunteers | effect on behavior in animals (behavior in animals): produce aberrant behavior in animals

O=C(c1ccc2nccnc2c1)N1CCCCC1 [CX516, 1-(Quinoxalin-6-ylcarbonyl)piperidine]
specificity for AMPA-type glutamate receptors [1]: quite specific for AMPA-type glutamate receptors | % Inhibition of ligand binding (Adrenergic receptor; 1E-5 Molar): -0.2% | % Inhibition of ligand binding (Adrenergic receptor; 1E-7 Molar): -3.5% | % Inhibition of ligand binding (Adrenergic receptor; 1E-9 Molar): 0.0% | Percent Reduction in Methamphetamine Induced Activity: Crossing [2, 6]: -32% | Percent Reduction in Methamphetamine Induced Activity: Crossing [2, 7]: 47% | Percent Reduction in Methamphetamine Induced Activity: Crossing [2, 8]: 10% | Percent Reduction in Methamphetamine Induced Activity: Crossing [2, 9]: 0% | reduction of METH LMA ([2]; CX516 30 mg/kg): 10% | % Inhibition of ligand binding (Dopaminergic receptor; 1E-5 Molar): -2.8% | % Inhibition of ligand binding (Dopaminergic receptor; 1E-7 Molar): 0.6% | % Inhibition of ligand binding (Dopaminergic receptor; 1E-9 Molar): -5.1% | % Inhibition of ligand binding (Muscarinic receptor; 1E-5 Molar): 5.3% | % Inhibition of ligand binding (Muscarinic receptor; 1E-7 Molar): 0.4% | % Inhibition of ligand binding (Muscarinic receptor; 1E-9 Molar): 5.5% | EC50 (AMPA receptors): 180 µM | % Inhibition of ligand binding (Serotoninergic receptor; 1E-5 Molar): 9.1% | % Inhibition of ligand binding (Serotoninergic receptor; 1E-7 Molar): 9.9% | % Inhibition of ligand binding (Serotoninergic receptor; 1E-9 Molar): 5.5% | total cumulative rearing activity during the 90 minute period after drug administration [3, 10]: 495±78 | reduction of methamphetamine-induced rearing activity ([3]; CX516 30 mg/kg, HAL 0.06 mg/kg): 23% | total rearing activity during the 90 minute test period ([3]; HAL 0.06 mg/kg, CX516 30 mg/kg): 863±169 | Percent Reduction in Methamphetamine Induced Activity: Rearing [3, 6]: 34% | Percent Reduction in Methamphetamine Induced Activity: Rearing [3, 7]: 37% | Percent Reduction in Methamphetamine Induced Activity: Rearing [3, 8]: 23% | Percent Reduction in Methamphetamine Induced Activity: Rearing [3, 9]: 28% | effect on methamphetamine-induced rearing [3, 11]: synergistically enhanced the antagonistic activity of clozapine; also recorded: synergistically enhances clozapine antagonism of methamphetamine-induced rearing activity; also recorded: small, but statistically insignificant antagonism of methamphetamine-induced rearing | effect on methamphetamine-induced rearing [3, 12]: modest, non-significant antagonism; also recorded: synergistically enhances haloperidol antagonism of methamphetamine-induced stereotypic rearing activity; also recorded: Neither CX516 (30 mg/kg) nor HAL (0.06 mg/kg) significantly reduced methamphetamine-induced rearing activity | reduction of METH-induced rearing [3, 13]: 28% | antagonism of METH-induced rearing activity ([3]; text of Example 2, clozapine 1.0 mg/kg alone, CX516 10 mg/kg alone): 34% | reduction of METH-induced stereotypic rearing activity ([3]; text of Example 3, haloperidol 0.06 mg/kg, CX516 30 mg/kg, combination p<0.0005 vs haloperidol alone): 22%

COc1ccc(C(=O)N2CCCC2=O)cc1 [aniracetam, N-anisoyl-2-pyrrolidinone]
fraction of drug converted to anisoyl-GABA [4]: about 80%

CNC1(c2ccccc2Cl)CCCCC1=O (centres unmarked) [ketamine]
effect on symptoms in patients (psychotic symptoms): exacerbate symptoms in patients | effect in volunteers (psychotic symptoms): produce a range of psychotic symptoms in volunteers | effect on behavior in animals (behavior in animals): produce aberrant behavior in animals

CN[C@@H](C)Cc1ccccc1 [METH, S-(+)-methamphetamine HCl, reference compound]
total cumulative rearing activity during the 90 minute period after drug administration [3, 10]: 724±136 | total rearing activity during the 90 minute test period ([3]; HAL 0.06 mg/kg, CX516 30 mg/kg): 1105±161 | effect on methamphetamine-induced rearing [3, 11]: large induction of rearing activity

Cc1cc2c(s1)Nc1ccccc1N=C2N1CCN(C)CC1 [olanzapine]
serotonin receptor antagonism (serotonin receptors): potent antagonists at serotonin receptors | dopamine receptor antagonism (dopamine receptors): relatively potent antagonists at dopamine receptors

Cc1nc2n(c(=O)c1CCN1CCC(c3noc4cc(F)ccc34)CC1)CCCC2 [Risperidone, reference compound]
serotonin receptor antagonism (serotonin receptors): potent antagonists at serotonin receptors | Percent Reduction in Methamphetamine Induced Activity: Crossing [2, 9]: 43% | dopamine receptor antagonism (dopamine receptors): relatively potent antagonists at dopamine receptors | Percent Reduction in Methamphetamine Induced Activity: Rearing [3, 9]: 51% | reduction of METH-induced rearing [3, 13]: 51%

OCCN1CCN(CCCN2c3ccccc3Sc3ccc(C(F)(F)F)cc32)CC1 [Fluphenazine, reference compound]
D2 dopamine receptor antagonism (D2 dopamine receptor): potently antagonize the D2 dopamine receptor | Percent Reduction in Methamphetamine Induced Activity: Crossing [2, 7]: 54% | Percent Reduction in Methamphetamine Induced Activity: Rearing [3, 7]: 57%

O=C(CCCN1CCC(O)(c2ccc(Cl)cc2)CC1)c1ccc(F)cc1 [Haloperidol, reference compound]
D2 dopamine receptor antagonism (D2 dopamine receptor): potently antagonize the D2 dopamine receptor | Percent Reduction in Methamphetamine Induced Activity: Crossing [2, 8]: 9% | reduction of METH LMA ([2]; CX516 30 mg/kg): 9% | reduction of methamphetamine-induced rearing activity ([3]; CX516 30 mg/kg, HAL 0.06 mg/kg): 16% | total rearing activity during the 90 minute test period ([3]; HAL 0.06 mg/kg, CX516 30 mg/kg): 934±119 | Percent Reduction in Methamphetamine Induced Activity: Rearing [3, 8]: 16% | effect on methamphetamine-induced rearing [3, 12]: modest, non-significant antagonism | effect on methamphetamine-induced rearing ([3]; haloperidol experiment, HAL 0.06 mg/kg, CX516 30 mg/kg, listed as HAL): Neither CX516 (30 mg/kg) nor HAL (0.06 mg/kg) significantly reduced methamphetamine-induced rearing activity

O=C(c1ccc2nonc2c1)N1CCCCC1 [CX691]
specificity for AMPA-type glutamate receptors [1]: quite specific for AMPA-type glutamate receptors | % Inhibition of ligand binding (Adrenergic receptor; 1E-4 Molar): 7.0% | % Inhibition of ligand binding (Adrenergic receptor; 1E-7 Molar): -7.5% | % Inhibition of ligand binding (Dopaminergic receptor; 1E-4 Molar): 10.7% | % Inhibition of ligand binding (Dopaminergic receptor; 1E-7 Molar): 6.1% | % Inhibition of ligand binding (Muscarinic receptor; 1E-4 Molar): -3.7% | % Inhibition of ligand binding (Muscarinic receptor; 1E-7 Molar): -8.0% | EC50 (AMPA receptors): 3 µM | % Inhibition of ligand binding (Serotoninergic receptor; 1E-4 Molar): 27.0% | % Inhibition of ligand binding (Serotoninergic receptor; 1E-7 Molar): 1.6%

COc1ccc(C(=O)NCCCC(=O)O)cc1 [anisoyl-GABA]
aniracetam-like effects [5]: only weak aniracetam-like effects

CN(C)CCCN1c2ccccc2Sc2ccc(Cl)cc21 [chlorpromazine]
D2 dopamine receptor antagonism (D2 dopamine receptor): potently antagonize the D2 dopamine receptor
